Assay results published in the supplement of paper PMC6045584.
± gives the standard deviation of the averaged measurements.

Tests used:
SAPACITABINE [1] = compound: T1, CCCCCCCCCCCCCCCC(=O)Nc1ccn([C@@H]2O[C@H](CO)[C@@H](O)[C@@H]2C#N)c(=O)n1 [SAPACITABINE]; assay: surviving fraction relative to DMSO-only wells; higher = less growth inhibition; settings: exposure time: 5 days
How it was run: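 Each tumour cell line was screened three times, and only lines with replicate Pearson r >0.7 and median Z' >0.3 were kept. Cells in log phase were seeded at 250–500 per well in 384-well plates, left 24 hours, then exposed continuously for five days to inhibitors at 0.5, 1, 5, 10, 50, 100, 500 and 1000 nM. Viability was read as CellTiter-Glo luminescence, with surviving fraction normalised to the median of DMSO-only wells.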

CANERTINIB = compound: C=CC(=O)Nc1cc2c(Nc3ccc(F)c(Cl)c3)ncnc2cc1OCCCN1CCOCC1 [CANERTINIB]; assay: area under dose-response curve of surviving fraction (unscaled, Aref=0) (surviving fraction x log10(nM)); higher = more resistant; settings: exposure time: 5 days; dose range 0.5-1000 nM
How it was run: (§1)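 Surviving fractions were fitted by 3-parameter logistic regression in the drc R package to give dose-response survival curves. They came from tumour cell lines treated for five days with eight inhibitor concentrations from 0.5 to 1000 nM and read by CellTiter-Glo luminescence against DMSO-only wells. The area under the curve is the unscaled activity area. It was calculated over log10 dose with Aref = 0.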

SNX-5422 = compound: CC1(C)CC(=O)c2c(C(F)(F)F)nn(-c3ccc(C(N)=O)c(N[C@H]4CC[C@H](OC(=O)CN)CC4)c3)c2C1 [SNX-5422]; assay: as above; settings: exposure time: 5 days; dose range 0.5-1000 nM
How it was run: as §1

SAPACITABINE [2] = compound: T1, SAPACITABINE; assay: as above; settings: exposure time: 5 days; dose range 0.5-1000 nM
How it was run: as §1

BI-2536 = compound: CC[C@@H]1C(=O)N(C)c2cnc(Nc3ccc(C(=O)NC4CCN(C)CC4)cc3OC)nc2N1C1CCCC1 [BI-2536]; assay: as above; settings: exposure time: 5 days; dose range 0.5-1000 nM
How it was run: as §1

AFATINIB = compound: CN(C)C/C=C/C(=O)Nc1cc2c(Nc3ccc(F)c(Cl)c3)ncnc2cc1O[C@H]1CCOC1 [AFATINIB]; assay: as above; settings: exposure time: 5 days; dose range 0.5-1000 nM
How it was run: as §1

MDV3100 = compound: CNC(=O)c1ccc(N2C(=S)N(c3ccc(C#N)c(C(F)(F)F)c3)C(=O)C2(C)C)cc1F [MDV3100]; assay: as above; settings: exposure time: 5 days; dose range 0.5-1000 nM
How it was run: as §1

[3] = compound: Cn1cc(C2=Nc3cc(NC(=O)C(N)C4CCCCC4)cc4c3C2=CNNC4=O)cn1; assay: as above; settings: exposure time: 5 days; dose range 0.5-1000 nM
How it was run: as §1

TIOGUANINE = compound: Nc1nc2[nH]cnc2c(=S)[nH]1 [TIOGUANINE]; assay: as above; settings: exposure time: 5 days; dose range 0.5-1000 nM
How it was run: as §1

Test System | surviving fraction (SAPACITABINE [1]; 0.5 nM) | surviving fraction (SAPACITABINE [1]; 1 nM) | surviving fraction (SAPACITABINE [1]; 5 nM) | surviving fraction (SAPACITABINE [1]; 10 nM) | surviving fraction (SAPACITABINE [1]; 50 nM) | surviving fraction (SAPACITABINE [1]; 100 nM) | surviving fraction (SAPACITABINE [1]; 500 nM) | surviving fraction (SAPACITABINE [1]; 1000 nM) | area under dose-response curve (CANERTINIB) | area under dose-response curve (SNX-5422) | area under dose-response curve (SAPACITABINE [2]) | area under dose-response curve (BI-2536) | area under dose-response curve (AFATINIB) | area under dose-response curve (MDV3100) | area under dose-response curve [3] | area under dose-response curve (TIOGUANINE)
CADOES1 SOFT TISSUE | 1.04 ± 0.053 | 1.03 ± 0.022 | 0.915 ± 0.11 | 0.857 ± 0.074 | 0.553 ± 0.075 | 0.209 ± 0.066 | 0.0497 ± 0.0072 | 0.0437 ± 0.0035 | 3 | 1.95 | 1.99 | 1.66 | 2.94 | 2.95 | 3.08 | 3.12
SIHA CERVIX | 0.907 ± 0.068 | 0.863 ± 0.03 | 0.895 ± 0.044 | 0.91 ± 0.021 | 1.02 ± 0.026 | 0.972 ± 0.11 | 0.739 ± 0.046 | 0.641 ± 0.035 | 2.92 | 2.2 | 3.12 | 1.43 | 3.2 | 3.05 | 3.22 | 3.01
HCC78 LUNG | 0.831 ± 0.058 | 0.916 ± 0.25 | 0.913 ± 0.038 | 0.354 ± 0.035 | 0.445 ± 0.095 | 0.123 ± 0.052 | 0.039 ± 0.0087 | 0.0357 ± 0.0059 | 2.55 | 1.71 | 1.52 | 0.803 | 2.33 | 2.9 | 2.33 | 2.59
OS25HAL BONE | 0.868 ± 0.022 | 0.8983 ± 0.0076 | 0.834 ± 0.0066 | 0.855 ± 0.059 | 0.974 ± 0.036 | 0.925 ± 0.015 | 0.293 ± 0.019 | 0.15 ± 0.014 | 3.13 | 2.27 | 2.79 | 0.792 | 3.28 | 3.23 | 2.71 | 3.21
NY BONE | 0.923 ± 0.043 | 0.872 ± 0.042 | 0.911 ± 0.024 | 0.812 ± 0.026 | 0.368 ± 0.02 | 0.262 ± 0.011 | 0.133 ± 0.0087 | 0.147 ± 0.0076 | 3.13 | 1.89 | 1.91 | 0.972 | 3.1 | 3.06 | 2.01 | 3.27
SUM44 BREAST | 0.781 ± 0.19 | 0.773 ± 0.18 | 0.823 ± 0.14 | 0.827 ± 0.1 | 0.902 ± 0.12 | 0.686 ± 0.13 | 0.68 ± 0.093 | 0.611 ± 0.07 | 2.78 | 2.47 | 2.51 | 0.689 | 3.18 | 3.43 | 1.84 | 3.39
SCC36 HEADNECK | 0.776 ± 0.055 | 0.793 ± 0.048 | 0.815 ± 0.05 | 0.797 ± 0.11 | 1.02 ± 0.16 | 0.939 ± 0.092 | 0.737 ± 0.064 | 0.577 ± 0.0091 | 2.1 | 2.06 | 2.66 | 1.03 | 1.53 | 3.27 | 2.54 | 3.72
MG63 BONE | 0.903 ± 0.027 | 0.898 ± 0.027 | 0.943 ± 0.021 | 0.9 ± 0.031 | 0.601 ± 0.014 | 0.357 ± 0.013 | 0.123 ± 0.019 | 0.217 ± 0.013 | 3.24 | 2.18 | 2.19 | 1.12 | 3.27 | 3.28 | 2.46 | 3.29
SCC003 HEADNECK | 0.85 ± 0.04 | 0.797 ± 0.068 | 0.885 ± 0.028 | 0.784 ± 0.047 | 1.05 ± 0.041 | 0.879 ± 0.026 | 0.481 ± 0.003 | 0.339 ± 0.014 | 2.54 | 2.21 | 2.85 | 1.71 | 2.48 | 3.21 | 3.25 | 3.27
